Here are results for four molecules from publication PMC9143562, “Hydrophilic CO-Releasing Material of PEGlyated Ruthenium Carbonyl Complex” (Materials, 2022).

Series [1] deals with acute hepatic ischemia-reperfusion injury. Further details: method as in PMID 20444253, PMID 21270767. Particulars: rats; serum AST/ALT, liver histology score; cited from earlier work.
The conditions of series [2]: cited from earlier work.
For series [3] the following is noted: human plasma; cited from earlier work.
Series [4] in a line: logP by flask-shaking method (n-octanol/water, UV-vis). Format: physicochemical. Conditions: for logP: oil-water partition coefficient, n-octanol/water, by UV-vis. As for the experimental part:
To identify the structural features of CO-RMs that govern the CO releasing behaviour, the CO release kinetics of 4–15 were correlated to the corresponding M-CO band and lipophilicity in Table 2. Firstly, the oil-water partition coefficient logP values of complexes were measured by the “flask-shaking” method with n-octanol and water, respectively. […] The water-solubility of these sawhorse ruthenium complexes mainly depend on both the axial glycol amino esters and bridging carboxylate, respectively. […]
4. Water-solubility Measured by the ﬂask - shaking method
The lipophilicity of complexes was measured by the ﬂask- shaking method where n-octanol and ultrapure water were used as the organic and aqueous phase respectively. First, make the pre saturated of oil-water two phase. Then the tested complex was dissolved in the isolated organic phase at a concentration of 1mg/mL, take 2 mL of liquld and 8mL aqueous phase was joined, the mixture was swirled for 12h at room temperature. The solution was then centrifuged, and the amounts of complex in organic layers were determined by UV-vis. Drawing standard curve and determination of oil-water partition coefficient. […]
5.4 UV-vis spectra of Lipophilicity (log Po/w)
Table S3. Stand curve measurement and calculation of Log P
Entry Standard curve equation Correlation coefficient(R2) […]

The test system of series [5] is myoglobin (lyophilised horse heart). The experiment in a line: Photo-activated CO release, myoglobin assay. Conditions: CO release half-life, 60 µM CO-RM, LED-UV 365 nm, PBS pH 7.4. On the procedure: The CO release activity of each CO-RM […] was measured with the “golden standard” of myoglobin assay. Firstly, sodium dithionite was added to reduce myoglobin to deoxy-myoglobin (deoxyMb) in PBS (pH = 7.4) at 37.8 °C. A stock solution of CO-RM was added and then activated by LED-UV radiation at 365 nm, releasing CO […]. The change of deoxyMb to carbonmonoxy-myoglobin (MbCO) was monitored by UV-vis spectroscopy. […] The half-lives of CO release rate of 4 at 60 µM is 166 s, 40 µM is 172 s, and 20 µM is 267 s. […]
3. CO-Release Measured by Standard Myoglobin Assay
The release of CO from the metal carbonyl compounds was studied by measuring the conversion of deoxy-myoglobin (deoxy-Mb) to carboxy-myoglobin (Mb-CO). The amount of Mb-CO formed was quantified by measuring the absorbance at 540 nm. […] A 2 mL quantity of this was measured to obtain a deoxy-Mb spectrum and then bubbled with CO to get a Mb-CO spectrum. […] The concentration of myoglobin in the stock solution was calculated from the maximal absorption peak of the Mb-CO solution at 540 nm (Equation 1).
Equation 1. Equation for calculating total myoglobin concentration in a saturated solution of Mb-CO; ε = extinction coefficient of Mb-CO=15.4 mM-1cm-1, OD540 = absorbance of Mb-CO solution […]
Intermediate concentrations of Mb-CO are calculated from the OD540. […] The new extinction coefficient was calculated (Equation 2). […]

Turning to `[C-]#[O+].[C-]#[O+].[C-]#[O+].[C-]#[O+].[C-]#[O+].[C-]#[O+].[Cl][Ru][Cl].[Cl][Ru][Cl]` [CO-RM-02, [Ru(CO)3Cl2]2], the “effect on acute hepatic ischemia-reperfusion injury” value in series [1] is on record as “attenuated acute hepatic ischemia-reperfusion injury in rats”. Moreover, the “solubility in aqueous systems” value in series [2] is reported as “poor solubility”.
`NCC(=O)O.[C-]#[O+].[C-]#[O+].[C-]#[O+].[Cl][Ru]` [CO-RM-03, [Ru(CO)3Cl(glycinate)]]: the “half-life of CO release” value in series [3] is 3.6 min.
As a reminder, the logP is a log measure of how a compound divides between an organic and an aqueous phase. The low end stands for lower lipophilicity, the high end for higher lipophilicity. With “[Ru2(CO)4(µ2-ŋ2-O2C-C14H9)2 (ŋ1-NH2CH2C(=O)OCH2CH2OCH3)2] [CO-RM 15]”, the logP entry in series [4] is “too hydrophobic to be evaluated”.
For “[Ru2(CO)4(µ2-ŋ2-O2C-p-ClC6H5)2 (ŋ1-NH2CH2C(=O)OCH2CH2OCH3)2] [CO-RM 13]”, the Coctanol in series [4] (concentration in n-octanol phase, UV-vis) came out at 0.9201 mmol/L. The Cwater in series [4] (concentration in water phase) was 0.05055 mmol/L. The molecule further gave a logP in series [4] of 1.26. The “t1/2, 60 µM” value in series [5] was found to be 16.1 min.
